Assay results reported in PMC8653295 (Chemistry (Weinheim an Der Bergstrasse, Germany), 2021).
Several values for one entry are separate records, joined by “and”; a condition that tells them apart may be missing. Equal entries are not always repeated. Entries after “also recorded” stand apart in the source; their conditions may differ.

What follows are compounds tested against interaction of the RBD of the SARS‐CoV‐2 S protein with the ACE2 receptor (Severe acute respiratory syndrome coronavirus 2, UniProt P0DTC2) (assay: not given). Conditions: 20 µM.
Assay type: binding

Compound	inhibition of the S/ACE2 interaction [%]
Rb5.5Na4.5[{(p‐tolyl)Sb}4(PW9O34)2] ⋅ 40H2O [POM‐6]	91
CO[C@H]1O[C@H](CNC(=O)C2CCN(C(=S)[S-])CC2)[C@@H](O)[C@H](O)[C@H]1O.[Au+3].[Br-].[Br-] [Au‐33]	10
O=C(O)CC([S-])C(=O)O.[Au+] (centres unmarked) [Au‐2, aurothiomalate, reference compound]	18
Na12[PbO8Pd12 (PO4)8] ⋅ 38H2O [POM‐1]	52
CO[C@H]1O[C@H](CO)[C@@H](O)[C@H](O)[C@H]1NC(=O)C1CCN(C(=S)[S-])CC1.[Au+3].[Br-].[Br-] [Au‐34]	15
Na12[SnO8Pd12(PO4)8] ⋅ 43H2O [POM‐2]	50
[Pd16Na2O26 (OH)3Cl3((CH3)2As)8] ⋅ 0.25Na(CH3)2AsO2 ⋅ 17H2O [POM‐11]	75
Rb6Na6[{(p‐tolyl)Sb}4(GeW9 O34)2] ⋅ 40H2O [POM‐7]	98

The compounds below were run against SARS‐CoV PL^pro (Severe acute respiratory syndrome coronavirus, UniProt P0C6X7) (assay: biochemical). Conditions: not given.
Assay type: biochemical

Compound	IC50 [nM]	IC50 SARS‐CoV PL^pro
CO[C@H]1O[C@H](CNC(=O)C2CCN(C(=S)[S-])CC2)[C@@H](O)[C@H](O)[C@H]1O.[Au+3].[Br-].[Br-] [Au‐33]	1040 ± 270	
O=C(O)CC([S-])C(=O)O.[Au+] (centres unmarked) [Au‐2, aurothiomalate, reference compound]	690 ± 200	Submicromolar
CO[C@H]1O[C@H](CO)[C@@H](O)[C@H](O)[C@H]1NC(=O)C1CCN(C(=S)[S-])CC1.[Au+3].[Br-].[Br-] [Au‐34]	1150 ± 340	

Same assay, conditions: 10 µM

Compound	inhibition of SARS-CoV PLpro
Rb5.5Na4.5[{(p‐tolyl)Sb}4(PW9O34)2] ⋅ 40H2O [POM‐6]	80%
CO[C@H]1O[C@H](CNC(=O)C2CCN(C(=S)[S-])CC2)[C@@H](O)[C@H](O)[C@H]1O.[Au+3].[Br-].[Br-] [Au‐33]	78%
O=C(O)CC([S-])C(=O)O.[Au+] (centres unmarked) [Au‐2, aurothiomalate, reference compound]	91% and > 50%
Na12[PbO8Pd12 (PO4)8] ⋅ 38H2O [POM‐1]	100%
CO[C@H]1O[C@H](CO)[C@@H](O)[C@H](O)[C@H]1NC(=O)C1CCN(C(=S)[S-])CC1.[Au+3].[Br-].[Br-] [Au‐34]	86%
Na12[SnO8Pd12(PO4)8] ⋅ 43H2O [POM‐2]	100%
[Pd16Na2O26 (OH)3Cl3((CH3)2As)8] ⋅ 0.25Na(CH3)2AsO2 ⋅ 17H2O [POM‐11]	100%
Rb6Na6[{(p‐tolyl)Sb}4(GeW9 O34)2] ⋅ 40H2O [POM‐7]	92%

These compounds were tested against SARS‐CoV‐2 PL^pro (Severe acute respiratory syndrome coronavirus 2, UniProt P0DTD1) (assay: biochemical). Conditions: not given.
Assay type: biochemical

Compound	IC50 [nM]	IC50 SARS‐CoV‐2 PL^pro
CO[C@H]1O[C@H](CNC(=O)C2CCN(C(=S)[S-])CC2)[C@@H](O)[C@H](O)[C@H]1O.[Au+3].[Br-].[Br-] [Au‐33]	210 ± 40	
O=C(O)CC([S-])C(=O)O.[Au+] (centres unmarked) [Au‐2, aurothiomalate, reference compound]	600 ± 250	Submicromolar
CO[C@H]1O[C@H](CO)[C@@H](O)[C@H](O)[C@H]1NC(=O)C1CCN(C(=S)[S-])CC1.[Au+3].[Br-].[Br-] [Au‐34]	90 ± 40	

Same assay, conditions: 1 µM

Compound	inhibition of SARS-CoV-2 PLpro
Rb5.5Na4.5[{(p‐tolyl)Sb}4(PW9O34)2] ⋅ 40H2O [POM‐6]	58%
CO[C@H]1O[C@H](CNC(=O)C2CCN(C(=S)[S-])CC2)[C@@H](O)[C@H](O)[C@H]1O.[Au+3].[Br-].[Br-] [Au‐33]	99%
O=C(O)CC([S-])C(=O)O.[Au+] (centres unmarked) [Au‐2, aurothiomalate, reference compound]	64% and > 50%
Na12[PbO8Pd12 (PO4)8] ⋅ 38H2O [POM‐1]	68%
CO[C@H]1O[C@H](CO)[C@@H](O)[C@H](O)[C@H]1NC(=O)C1CCN(C(=S)[S-])CC1.[Au+3].[Br-].[Br-] [Au‐34]	98%
Na12[SnO8Pd12(PO4)8] ⋅ 43H2O [POM‐2]	66%
[Pd16Na2O26 (OH)3Cl3((CH3)2As)8] ⋅ 0.25Na(CH3)2AsO2 ⋅ 17H2O [POM‐11]	85%
Rb6Na6[{(p‐tolyl)Sb}4(GeW9 O34)2] ⋅ 40H2O [POM‐7]	67%

Each compound was assayed on SARS‐CoV‐2 (assay: not given). Conditions: not given.
Assay type: cell-based

Compound	antiviral effect against SARS‐CoV‐2 replication (in words)	concentration at which antiviral effects were shown [µM]
CO[C@H]1O[C@H](CNC(=O)C2CCN(C(=S)[S-])CC2)[C@@H](O)[C@H](O)[C@H]1O.[Au+3].[Br-].[Br-] [Au‐33]	inactive at low dosages; also recorded: completely blocked SARS‐CoV‐2 at 500 μM; also recorded: strongly blocked viral replication at a high dosage of 500 μM	
O=C(O)CC([S-])C(=O)O.[Au+] (centres unmarked) [Au‐2, aurothiomalate, reference compound]	not active	
CO[C@H]1O[C@H](CO)[C@@H](O)[C@H](O)[C@H]1NC(=O)C1CCN(C(=S)[S-])CC1.[Au+3].[Br-].[Br-] [Au‐34]	inactive at low dosages; also recorded: completely blocked SARS‐CoV‐2 at 500 μM; also recorded: strongly blocked viral replication at a high dosage of 500 μM	
[Pd16Na2O26 (OH)3Cl3((CH3)2As)8] ⋅ 0.25Na(CH3)2AsO2 ⋅ 17H2O [POM‐11]	antiviral activity starting at low micromolar concentrations	50

What follows are compounds tested on Caco‐2 cells (assay: not given). Conditions: not given.

Compound	cytotoxicity (in words)	concentration up to which no significant cytotoxic effects / tolerated well [µM]
Rb5.5Na4.5[{(p‐tolyl)Sb}4(PW9O34)2] ⋅ 40H2O [POM‐6]	strongly toxic	
CO[C@H]1O[C@H](CNC(=O)C2CCN(C(=S)[S-])CC2)[C@@H](O)[C@H](O)[C@H]1O.[Au+3].[Br-].[Br-] [Au‐33]		≥ 500
O=C(O)CC([S-])C(=O)O.[Au+] (centres unmarked) [Au‐2, aurothiomalate, reference compound]		≥ 500
Na12[PbO8Pd12 (PO4)8] ⋅ 38H2O [POM‐1]		≥ 200
CO[C@H]1O[C@H](CO)[C@@H](O)[C@H](O)[C@H]1NC(=O)C1CCN(C(=S)[S-])CC1.[Au+3].[Br-].[Br-] [Au‐34]		≥ 500
Na12[SnO8Pd12(PO4)8] ⋅ 43H2O [POM‐2]		≥ 200
[Pd16Na2O26 (OH)3Cl3((CH3)2As)8] ⋅ 0.25Na(CH3)2AsO2 ⋅ 17H2O [POM‐11]		≥ 200
Rb6Na6[{(p‐tolyl)Sb}4(GeW9 O34)2] ⋅ 40H2O [POM‐7]	strongly toxic	

What follows are compounds tested on CaLu‐3 cells (assay: not given). Conditions: not given.

Compound	cytotoxicity (in words)	concentration up to which no significant cytotoxic effects / tolerated well [µM]
Rb5.5Na4.5[{(p‐tolyl)Sb}4(PW9O34)2] ⋅ 40H2O [POM‐6]	strongly toxic	
CO[C@H]1O[C@H](CNC(=O)C2CCN(C(=S)[S-])CC2)[C@@H](O)[C@H](O)[C@H]1O.[Au+3].[Br-].[Br-] [Au‐33]		≥ 500
O=C(O)CC([S-])C(=O)O.[Au+] (centres unmarked) [Au‐2, aurothiomalate, reference compound]		≥ 500
Na12[PbO8Pd12 (PO4)8] ⋅ 38H2O [POM‐1]		≥ 200
CO[C@H]1O[C@H](CO)[C@@H](O)[C@H](O)[C@H]1NC(=O)C1CCN(C(=S)[S-])CC1.[Au+3].[Br-].[Br-] [Au‐34]		≥ 500
Na12[SnO8Pd12(PO4)8] ⋅ 43H2O [POM‐2]		≥ 200
[Pd16Na2O26 (OH)3Cl3((CH3)2As)8] ⋅ 0.25Na(CH3)2AsO2 ⋅ 17H2O [POM‐11]		≥ 200
Rb6Na6[{(p‐tolyl)Sb}4(GeW9 O34)2] ⋅ 40H2O [POM‐7]	strongly toxic	
